Patent EP2826473A1, “NOVEL USE OF PATCHOULOL” (Chengdu Huasun Group Inc., Ltd., priority 2012, dated 2013)
Values after ≈ are worked out from the molar mass of the structure shown. Where two headings read alike, the source gives them in different places.

Legend:
[1] = test system: Gram-positive bacteria and Gram-negative bacteria; assay: in vitro bacteriostatic activity, summary of Tables 1-5; type: cell-based; settings: read-out: MIC values
Experimental: Preparation of drug-containing flat plates: patchoulol was diluted by coubling double dilution in DMSO, and 1 ml and 14 ml of sterile MH culture media in different gradient concentrations were respectively added to the disposable sterile petri dishes. Tested drugs were respectively diluted to different gradient concentrations from 768 to 0.006 µg/ml, fully mixed, and dried to reserve. As mentioned above, replacing tested drug with same amount of normal saline was used to prepare positive control plates.
Preparation of bacterial liquid: Tested strains and drug-sensitive strains used for quality control were diluted with stroke-physiological saline solution to the concentration of 10^6 CFU/ml. […]
Staphylococcus aureus and Staphylococcus epidermidis were cultured at 35-37°C for 18-24 h in MH media (containing 2% NaCl); Streptococcus pneumonia was cultured in brain heart infusion agar media (containing 5% goat blood) within an incubator under 5% CO2 at 35°C for 24 hours; Gram-negative bacteria and other strains were placed in an incubator at 35-37°C and cultured for 18-20 h; Results were observed and recorded. […]

[2] = cited from earlier work
[3] = test system: methicillin-resistant Staphylococcus aureus ATCC 43300; assay: prevention of bacterial infection, colony count on patchoulol-coated tubes; settings: cultured 7 days at 37°C
influenza virus FM1 = settings: 30 mg/kg; cited from earlier work
[4] = mouse, in vivo, po; cited from earlier work
xylene-induced ear edema = settings: mice, dose-dependent; cited from earlier work
termites = settings: in vivo; cited from earlier work
neurotoxicity of Aβ25∼35 = settings: in vitro, 0.05, 0.5, 5 µg/ml; cited from earlier work
Streptococcus uberis = assay: in vitro bacteriostatic activity, agar dilution MIC; type: cell-based; settings: Streptococcus uberis 12-1
[5] = test system: Staphylococcus saprophyticus; assay: as above; type: cell-based
Acinetobacter lwoffii = assay: as above; type: cell-based
[6] = test system: influenza virus A/PR/8/34 (H1N1); settings: in vitro; cited from earlier work
[7] = test system: Staphylococcus aureus MRSA; assay: in vitro bacteriostatic activity, agar dilution MIC; type: cell-based
influenza virus H2N2 = settings: intragastric administration of 5 mg/(kg·d); cited from earlier work
[8] = test system: learning and memory ability; settings: mice, scopolamine, intragastric 80 and 40 mg/kg; cited from earlier work
Corynebacterium = assay: in vitro bacteriostatic activity, agar dilution MIC; type: cell-based; settings: Coryneba cterium 12-1
[9] = test system: Staphylococcus epidermidis MRSE; assay: as above; type: cell-based
[10] = test system: Chryseobacterium indologenes; assay: as above; type: cell-based
vomit response = settings: chickens, 50-70 mg/kg; cited from earlier work
Megasphaera elsdenii = assay: in vitro bacteriostatic activity, agar dilution MIC; type: cell-based
[11] = test system: Staphylococcus auricularis; assay: as above; type: cell-based
Pseudomonas aeruginosa = assay: as above; type: cell-based; settings: Pseudomonas aeruginosa12-1
Escherichia coli E^- = assay: as above; type: cell-based
Proteus vulgaris = assay: as above; type: cell-based; settings: Proteus vulgaris 12-1
Escherichia coli = assay: in vitro bacteriostatic activity, agar dilution MIC, quality control strain and summary; type: cell-based
[12] = test system: influenza virus A/FM/1/47 (H1N1); settings: intragastric 40 and 80 mg/kg for successive 7 days; cited from earlier work

In the case of `C[C@H]1CC[C@@]2(O)C(C)(C)[C@@H]3CC[C@@]2(C)[C@H]1C3` (stereo in doubt) [PC, (1R,4S,4aS,6R,8aS)-octahydro-4,8a,9,9-tetramethyl-1,6-methanonaphthalen-1(2H)-ol], the MIC [1] is listed as 1.5 to 200 µg/mL (≈ 6.75 to 899 µM), the solubility ([2]; in petroleum ether, ethanol and other commonly used organic solvents) is listed as “freely soluble” and the solubility ([2]; in water) is listed as “insoluble”. For the same molecule, the bacterial colony numbers ([3]; 400, 200, 100 and 50 µg/ml, compared with 0 µg/ml) was “decrease”, the bacterial colony numbers ([3]; patchoulol on intraductal membranes more than or equal to 600 µg/ml) was 0 and the “survival rate of infected mice” value (influenza virus FM1) was “improve the survival rate”. For the same molecule, the maximum tolerated dose [4] was “less than 12.5 g/kg”, the xylene-induced ear edema (xylene-induced ear edema) was “effectively inhibit” and the effect on termites (termites) was “obviously toxic and removal effect”. The “increase of intra-cellular ROS level and [Ca^2+]I induced by Aβ25~35” value (neurotoxicity of Aβ25∼35) was “inhibit the increase”, the MIC (Streptococcus uberis) was 25 µg/mL (≈ 112 µM) and the MIC ([5]; Staphylococcus saprophyticus 12-2) was 100 µg/mL (≈ 450 µM). It also gave an MIC ([5]; Staphylococcus saprophyticus12-3) of 100 µg/mL (≈ 450 µM), an MIC ([5]; Staphylococcus saprophyticus, Staphylococcus saprophyticus12-1, read-out: MIC) of 100 µg/mL (≈ 450 µM) and an MIC (Acinetobacter lwoffii; Acinetobacter lwoffii 12-1, read-out: MIC) of 50 µg/mL (≈ 225 µM). The MIC (Acinetobacter lwoffii; Acinetobacter lwoffii 12-2) was 50 µg/mL (≈ 225 µM), the IC50 [6] was ~2640 nM and the MIC ([7]; ATCC 43300 / MRSA, Methicillin-resistant Staphylococcus aureus ATCC 43300, read-out: MIC) was 128 µg/mL (≈ 576 µM). The MIC ([7]; MRSA, Staphylococcus aureus MRSA 10-31, read-out: MIC) was 1.5 µg/mL (≈ 6.75 µM), the MIC ([7]; MRSA, Staphylococcus aureus MRSA 10-32, read-out: MIC) was 1.5 µg/mL (≈ 6.75 µM) and the MIC ([7]; MRSA, Staphylococcus aureus MRSA 12-11, read-out: MIC) was 128 µg/mL (≈ 576 µM). For the same molecule, the MIC ([7]; MRSA, Staphylococcus aureus MRSA 12-12, read-out: MIC) was 128 µg/mL (≈ 576 µM), the MIC ([7]; MRSA, Staphylococcus aureus MRSA 12-13, read-out: MIC) was 64 µg/mL (≈ 288 µM) and the MIC ([7]; MRSA, Staphylococcus aureus MRSA 12-14, read-out: MIC) was 64 µg/mL (≈ 288 µM). For the same molecule, the MIC ([7]; MRSA, Staphylococcus aureus MRSA 12-15, read-out: MIC) was 64 µg/mL (≈ 288 µM), the MIC ([7]; MRSA, Staphylococcus aureus MRSA 12-16, read-out: MIC) was 64 µg/mL (≈ 288 µM) and the MIC ([7]; MRSA, Staphylococcus aureus MRSA 12-17, read-out: MIC) was 128 µg/mL (≈ 576 µM). It also gave an MIC ([7]; MRSA, Staphylococcus aureus MRSA 12-18, read-out: MIC) of 128 µg/mL (≈ 576 µM), an MIC ([7]; MRSA, Staphylococcus aureus MRSA 12-19, read-out: MIC) of 64 µg/mL (≈ 288 µM) and an MIC ([7]; MRSA, Staphylococcus aureus MRSA 12-20, read-out: MIC) of 128 µg/mL (≈ 576 µM). The “protective effect on infected model mice” value (influenza virus H2N2) was “obvious protective effect”, the “learning and memory ability” value [8] was “enhance learning and memory ability” and the MIC (Corynebacterium) was 12.5 µg/mL (≈ 56.2 µM). For the same molecule, the MIC ([9]; Staphylococcus epidermidis MRSE 10-40, read-out: MIC) was 1.5 µg/mL (≈ 6.75 µM), the MIC ([9]; Staphylococcus epidermidis MRSE 10-44, read-out: MIC) was 1.5 µg/mL (≈ 6.75 µM) and the MIC ([9]; Staphylococcus epidermidis MRSE 12-11, read-out: MIC) was 128 µg/mL (≈ 576 µM). The MIC ([9]; Staphylococcus epidermidis MRSE 12-12, read-out: MIC) was 32 µg/mL (≈ 144 µM), the MIC ([9]; Staphylococcus epidermidis MRSE 12-15, read-out: MIC) was 32 µg/mL (≈ 144 µM) and the MIC ([9]; Staphylococcus epidermidis MRSE 12-16, read-out: MIC) was 32 µg/mL (≈ 144 µM). The MIC ([9]; Staphylococcus epidermidis MRSE 12-17, read-out: MIC) was 32 µg/mL (≈ 144 µM), the MIC ([9]; Staphylococcus epidermidis MRSE 12-18, read-out: MIC) was 32 µg/mL (≈ 144 µM) and the MIC ([9]; Staphylococcus epidermidis MRSE 12-19, read-out: MIC) was 32 µg/mL (≈ 144 µM). For the same molecule, the MIC ([9]; Staphylococcus epidermidis MRSE 12-20, read-out: MIC) was 128 µg/mL (≈ 576 µM), the MIC ([9]; Staphylococcus epidermidis MRSE 12-21, read-out: MIC) was 128 µg/mL (≈ 576 µM) and the MIC ([9]; Staphylococcus epidermidis MRSE 12-22, read-out: MIC) was 32 µg/mL (≈ 144 µM). For the same molecule, the MIC ([10]; Chryseobacterium indologenes12- (first line, r25)) was 25 µg/mL (≈ 112 µM), the MIC ([10]; Chryseobacterium indologenes12- (second line, r26)) was 100 µg/mL (≈ 450 µM) and the “vomit response induced by CuSO4” value (vomit response) was “obviously inhibit”. It also gave an MIC (Megasphaera elsdenii; Megasphaera elsdenii 12-1) of 50 µg/mL (≈ 225 µM), an MIC (Megasphaera elsdenii; Megasphaera elsdenii 12-2) of 25 µg/mL (≈ 112 µM) and an MIC (Megasphaera elsdenii; Megasphaera elsdenii 12-3) of 50 µg/mL (≈ 225 µM). The MIC (Megasphaera elsdenii; Megasphaera elsdenii 12-4) was 50 µg/mL (≈ 225 µM), the MIC ([11]; Staphylococcus auricularis (first line, r19)) was 25 µg/mL (≈ 112 µM) and the MIC ([11]; Staphylococcus auricularis (second line, r20)) was 50 µg/mL (≈ 225 µM). The MIC (Pseudomonas aeruginosa) was 50 µg/mL (≈ 225 µM), the MIC (Escherichia coli E^-; Escherichia coli E^- 10-12) was > 768 µg/mL and the MIC (Escherichia coli E^-; Escherichia coli E^- 10-18) was > 768 µg/mL. The MIC (Proteus vulgaris) was 100 µg/mL (≈ 450 µM), the MIC (Escherichia coli; ATCC25922, Escherichia coli ATCC 25922, read-out: MIC) was 768 µg/mL (≈ 3450 µM) and the MIC (Escherichia coli; summary, Escherichia coli ESBLs /ESBLs^+, read-out: MIC values) was ≥ 768 µg/mL. The “survival rate of nonlethal and lethal model mice” value [12] was “obviously improve the survival rate”.
